Experimental data from patent US9044428B2, “Neuritogenic peptides” (Neoloch ApS, priority 2005, dated 2015).
Peptide text beside a SMILES is read from it.

Legend:
[1] = test system: Primary cultures of CGN; assay: Survival of CGN induced to undergo apoptosis (low KCl) in vitro; format: cell-based, rat; conditions: apoptosis induced by reducing KCl to 5 mM, two days
Protocol: Primary cultures of CGN were plated at a density of 100 000 cells/cm^2 on poly-L-lysine coated 8-well permanox slides in Neurobasal-A medium (Gibco BRL) supplemented with 2% (v/v) B27, 0.5% (v/v) glutamax, 100 units/mL penicillin, 100 μg/mL streptomycin and KCl, making the final concentration of KCl in the medium 40 mm, Twenty-four hours after plating, Ara-C (Sigma-Aldrich) was added to a final concentration of 10 μm to avoid proliferation of glial cells, after which the neurons were allowed to differentiate for a further 6 days at 37° C. Apoptotic cell death was induced by washing twice and changing the medium to Basal Medium Eagle (BME; Gibco BRL) supplemented with 1% (v/v) glutamine, 100 U/mL, penicillin and 100 μg/mL streptomycin, 3.5 g d-glucose/L and 1% (v/v) sodium pyruvate (Gibco BRL) together with various concentrations of peptide. Thereby the concentration of potassium in the cultures was reduced to 5 mm KCl (D'Mello et al. 1993). Two days after induction of apoptosis, the cells were fixed with 4% (v/v) formaldehyde and stained with Hoechst 33258 as described for the survival assay employing hippocampal neurons.

[2] = test system: rat brain after TBI; assay: Oxidative DNA damage after traumatic brain injury (8-oxoguanine immunostaining); format: in vivo; conditions: s.c., 3 days after lesion
Protocol: (§1) Male rats (wistar) (tree groups, 5 rats/group) were injected s.c with different Epo peptides (each group individually with Epo 2, Epo 3 or Epo 4) three times according to the scheme: • 1. the day before the lesion: a single injection of a peptide per animal (1 mg/100 g animal weight); • 2. the 1st day after the lesion: a single injection of a peptide per animal (1 mg/100 g animal weight): • 3. the 2nd day after the lesion: a single injection of a peptide per animal (1 mg/100 g animal weight); • 4. the 3rd day after the lesion: animals are sacrificed.
(§2) Control groups were a group (4 rats) injected with the vehicle (water) and a group (4 rats), injected with human recombinant EPO (hrEPO) in dose 50 μg/100 g rat according to the above scheme.
(§3) A traumatic brain injury (TBI) was induced by applying dry ice (−78 C) to the extracranial surface of the skull for 60 sec, which induces a focal injury in the right fronto-parietal cortex. Three days after the lesion (3 dpl) rats were deeply anesthetized with Brietal (10 mg/100 gr) and fixed by transcardial perfusion with 0.9% NaCl and 0.3% heparin, followed by Zamboni's fixative. The brains were removed, dehydrated according to the standard protocol, embedded in paraffin, and cut in 6-μm-thick frontal sections for further evaluation by immunohistochemistry and TUNEL.
(§4) For immunohistochemistry the sections of the brains were incubated overnight with polyclonal rabbit anti-cow GFAP, GAP-43, 8-oxoguanine, or PSA-NCAM antibodies 1:250 (Dakopatts). The primary antibodies were detected in the sections with biotinylated secondary antibodies followed by incubation with streptavidin-biotin-peroxidase (30 min). Afterwards, the sections were incubated with biotinylated tyramide and streptavidin-peroxidase complex (NEN, Life Science Products, USA, code NEL700A) prepared following the manufacturer recommendations, and visualized with 0.015% H2O2 in DAB/TBS for 10 min.

[3] = Hematocrit in rats after the brain lesion; format: in vivo; conditions: rat after brain lesion, peptide 1 mg/100 g s.c., p>0.02
Protocol: as §1, §2

[4] = test system: rat brain after TBI; assay: Neuroplasticity and neurite outgrowth in vivo after TBI (PSA-NCAM and GAP-43 immunostaining); conditions: for neurite outgrowth in vivo (GAP-43 immunostaining): cortical lesion area, choroid plexus, hippocampus, hypothalamus; for level of PSA-NCAM staining: area adjusted to the lesion and subventricular zone
Protocol: as §1, §2, §3, §4

[5] = test system: human erythroleukemia cells TF-1; assay: Proliferation of TF-1 cells (BrdU incorporation ELISA); format: cell-based; conditions: for stimulation of haemopoietic cell proliferation (general conclusion): no concentration stated
Protocol: Evaluation of the effect of four EPO-derived peptides on cell proliferation was performed using a TF-1 cell line. The TF-1 cell line was established from sample from patient with severe pancytopenia (human erythroleukemia). The growth of these cells is dependent of the presence of the granulocyte-macrophage colony-stimulating factor (GM-SCF). The TF-1 cells were grown in Dulbecco's Modified Eagle Medium (DMEM) supplemented with 10% (v/v) heat inactivated foetal calf serum (FCS), 2 mM GlutaMAX, penicillin (100 U/ml) and streptomycin (100 μg/ml), 10 mM HEPES, 1 mM sodium pyruvate, 1% fungizone. The growth medium was supplemented with 2 ng/ml GM-CSF. Cell proliferation was determined using a Biotrak ELISA system, version 2 (Amersham Biosciences, UK). The procedure is based on measurement of the levels of 5-bromo-2′-deoxyuridine (BrdU) incorporation during DNA synthesis in proliferating cells. Briefly, passaged cells were washed once with starving medium (culturing medium without GM-CSF) then plated in 96-well Nuclon culture microplates (Nuno, Denmark) at a density of 5000 cells/well and grown in starving medium containing 0.008, 0.04, 0.2, 1.0, 5.0, 25 and 50 μg/ml of the tested compounds. As a positive control the human recombinant erythropoietin (EPO) (Calbiochem, Denmark) was used in a concentration of 2.0 ng/ml. TF-1 cells were allowed to grow in the presence of peptides for 24 h and than to all wells (except negative controls) BrdU was added to a final concentration of 10 μM and cultures were further incubated for 24 h, fixed and processed according to the procedure recommended by manufacturer, […]

[6] = test system: Cerebellar granule neuron (CGN) cultures; assay: Stimulation of neurite outgrowth from cerebellar granule neurons in vitro; format: cell-based, rat; conditions: 24 h treatment of CGN cultures
Source text: Cerebellar granule neuron (CGN) cultures were obtained from 3-4-day-old Wistar rats (Charles River, Sulzfeld, Germany, or Moellegaard, Denmark) as previously described by Schousboe et al. (1989). Briefly, the cerebella were dissected, cleared of meninges and blood vessels, chopped, and trypsinized. The neurons were washed in the presence of DNAse 1 and soybean trypsin inhibitor (Sigma), and cellular debris was pelleted by centrifugation; the cells resuspended and then plated on poly-L-lysine (PLL; Sigma)-coated or uncoated microtiter plates in Neurobasal medium supplemented with 4% (w/v) bovine serum albumin (BSA), 2% (v/v) B27, 1% (v/v) glutamax, 100 U/ml penicillin, 100 gi/ml streptomycin, 4.5 g D-glucose/L (Sigma) 0.25% (v/v) sodium pyruvate, and 2% (v/v) 1 M HEPES (Gibco BRL).

[7] = test system: rat brain after TBI; assay: Astrocytosis after traumatic brain injury (GFAP IHC); format: in vivo; conditions: s.c., 3 days after lesion
Protocol: as §1, §2
A traumatic brain injury (TBI) was induced by applying dry ice (−78 C) to the extracranial surface of the skull for 60 sec, which induces a focal injury in the right fronto-parietal cortex. […]
For immunohistochemistry the sections of the brains were incubated overnight with polyclonal rabbit anti-cow GFAP, GAP-43, 8-oxoguanine, or PSA-NCAM antibodies 1:250 (Dakopatts). The primary antibodies were detected in the sections with biotinylated secondary antibodies followed by incubation with streptavidin-biotin-peroxidase (30 min). […]

[8] = test system: rat brain after TBI; assay: Programmed cell death after traumatic brain injury (TUNEL); format: in vivo; conditions: s.c., 3 days after lesion
Protocol: as §1, §2
as §3, with “TUNEL. […]” for “TUNEL.”

[9] = molecular target: T1, recombinant erythropoietin receptor (EPOR-Fc) (Homo sapiens, UniProt P19235); assay: SPR binding of soluble EPOR-Fc to immobilized Epo 3 peptide
T1 construct: the chip was incubated with soluble recombinant EPOR-Fc under standard conditions
T1 sequence (P19235 25-250 limits assumed): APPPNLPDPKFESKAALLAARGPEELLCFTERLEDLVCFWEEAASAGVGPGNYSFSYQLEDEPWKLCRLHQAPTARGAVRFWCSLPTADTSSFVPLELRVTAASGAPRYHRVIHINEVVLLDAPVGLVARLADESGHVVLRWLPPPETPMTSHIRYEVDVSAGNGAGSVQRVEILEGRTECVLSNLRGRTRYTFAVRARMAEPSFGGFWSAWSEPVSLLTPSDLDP
Protocol: The binding of Epo 3 to EPOR-Fc was studied by SPR analysis. The Epo 3 peptide was immobilized on a chip and the chip was incubated with soluble recombinant EPOR-Fc under standard conditions. Three independent experiments were performed. […] The results of binding are shown on FIG. 16.

[10] = Epo 3 ionic bonded with the chip, soluble EPOR-Fc, three experiments

Molecule	protection of CGN induced to undergo apoptosis (neuronal survival) [1]	8-oxoguanine positive cells (oxidative DNA damage) [2]	effect on the hematocrit vs control [3]	neurite outgrowth in vivo (GAP-43 immunostaining) [4]	neurite outgrowth from CGN (neuritogenic activity) [6]	astrocytosis (reactive astrogliosis) by GFAP IHC [7]	proliferation of TF-1 cells ([5]; concentration of 50 μg/ml)	TUNEL-positive apoptotic cells around the necrotic cavity [8]	level of PSA-NCAM staining [4]	stimulation of haemopoietic cell proliferation (general conclusion) [5]	other results
NENITVPDTKVNFYAWKR (Derived from human erythropoietin, Swiss Prot P01588) [Epo2, peptide fragment derived from human erythropoietin]	strongest neuroprotective effect	lowest number of the 8-oxoguanine positive cells	no statistically significant effect	stimulates neurite outgrowth	capable of stimulating neurite outgrowth	mast pronounced increase in reactive astrogliosis					effect on the hematocrit vs control ([3]; listed as Epo 2): no significant effect; proliferation of TF-1 cells ([5]; concentrations of 25 and 50 μg/ml): stimulates proliferation of TF-1 cells; neurite outgrowth from CGN (neuritogenic activity) ([6]; listed as SEQ ID NO: 2): strongly induce neurite outgrowth
DSRVLERYLLEAKE (Derived from human erythropoietin, Swiss Prot P01588) [Epo1, peptide fragment derived from human erythropoietin]							stimulates proliferation of TF-1 cells				proliferation of TF-1 cells ([5]; concentration of 0.2 μg/ml): probably had a stimulatory effect; neurite outgrowth from CGN (neuritogenic activity) ([6]; listed as SEQ ID NO: 1): do net have any neuritogenic activity
RVYSNFLRGKLKLYTGEA (Derived from human erythropoietin, Swiss Prot P01588) [Epo4, peptide fragment derived from human erythropoietin]	strongest neuroprotective effect	significantly reduced oxidative DNA damage	no statistically significant effect		capable of stimulating neurite outgrowth	least effect	stimulate proliferation of TF-1 cells	lowest level of apoptosis	significantly increases the level of PSA-NCAM staining	most potent among them	neurite outgrowth from CGN (neuritogenic activity) ([6]; listed as SEQ ID NO: 4): strongly induce neurite outgrowth
CC(C)C[C@H](NC(=O)CNC(=O)[C@H](CO)NC(=O)[C@@H](NC(=O)[C@H](C)NC(=O)[C@H](CCCCN)NC(=O)[C@H](CC(=O)O)NC(=O)[C@@H](NC(=O)[C@H](Cc1c[nH]cn1)NC(=O)[C@H](CC(C)C)NC(=O)[C@@H](N)CCC(N)=O)C(C)C)C(C)C)C(=O)N[C@@H](CCCNC(=N)N)C(=O)N[C@@H](CO)C(=O)N[C@@H](CC(C)C)C(=O)N[C@H](C(=O)N[C@H](C(=O)N[C@@H](CC(C)C)C(=O)N[C@@H](CC(C)C)C(=O)N[C@@H](CCCNC(=N)N)C(=O)N[C@@H](C)C(=O)O)[C@@H](C)O)[C@@H](C)O [Epo3] (H-QLHVDKAVSGLRSLTTLLRA-OH)	strongest neuroprotective effect	lowest number of the 8-oxoguanine positive cells	no statistically significant effect	stimulates neurite outgrowth	capable of stimulating neurite outgrowth		stimulate proliferation of TF-1 cells	lowest level of apoptosis	significantly increases the level of PSA-NCAM staining	most potent among them	binding to EPOR ([9]; Epo 3 covalently bonded to the chip): does not bind to EPOR; association rate ka [9, 10]: 2.1*10^4+−1.4*10^4; dissociation rate kd [9, 10]: 4.33*10^−5+−1.62*10^−5; kon ([9]; Epo 3 ionic bonded with the chip, soluble EPOR-Fc, three experiments, read-out: association rate ka): 21000 M⁻¹ s⁻¹; koff ([9]; Epo 3 ionic bonded with the chip, soluble EPOR-Fc, three experiments, read-out: dissociation rate kd): 4.33e-05 s⁻¹; Kd ([9]; Epo 3 ionic bonded with the chip, soluble EPOR-Fc, read-out: overall binding affinity of EPOR to Epo3): 4.48 nM; effect on the hematocrit vs control ([3]; listed as Epo 3): no significant effect; neurite outgrowth from CGN (neuritogenic activity) ([6]; listed as SEQ ID NO: 3): strongly induce neurite outgrowth
